Experimental data from patent US20230271950A1, “ANTIBACTERIAL PICOLINAMIDE COMPOUNDS” (University of Notre Dame Du Lac, priority 2020, published 2023).
≈ marks a conversion by molar mass, not a printed value. Like-named read-outs stand apart in the source and are kept apart here.

Experiments:
C. difficile = test: MIC by broth microdilution against C. difficile strains; format: cell-based, Clostridioides difficile; settings: Clostridioides difficile; for MIC: Table 9, read-out: MIC
MRSA (NRS70, NRS119) = test: MIC against MRSA strains; format: cell-based, Staphylococcus aureus; settings: Staphylococcus aureus, read-out: MIC
S. aureus ATCC29213 = test: MIC against MSSA; format: cell-based, Staphylococcus aureus; settings: Staphylococcus aureus; S. aureus ATCC29213; Table 1; read-out: MIC
E. faecium NCTC7171 = test: MIC against E. faecium; format: cell-based, Enterococcus faecium; settings: Enterococcus faecium; E. faecium NCTC7171; Table 1; read-out: MIC
Bacteroides fragilis = test: MIC against gut bacterium Bacteroides fragilis; format: cell-based; settings: Bacteroides fragilis, Bacteroides fragilis strain HM-709, read-out: MIC
Bifidobacterium longum = test: MIC against gut bacterium Bifidobacterium longum; format: cell-based; settings: Bifidobacterium longum, Bifidobacterium longum strain HM-846, read-out: MIC
Corynebacterium spp. = test: MIC against gut bacterium Corynebacterium spp.; format: cell-based; settings: Corynebacterium, Corynebacterium spp. strain HM-784
Fusobacterium nucleatum = test: MIC against gut bacterium Fusobacterium nucleatum; format: cell-based; settings: Fusobacterium nucleatum, Fusobacterium nucleatum strain HM-992, read-out: MIC
Lactobacillus reuteri = test: MIC against gut bacterium Lactobacillus reuteri; format: cell-based
Lactobacillus gasseri = test: MIC against gut bacterium Lactobacillus gasseri; format: cell-based
Veillonella sp. HM-49 = test: MIC against gut bacterium Veillonella sp.; format: cell-based
Eubacterium sp. = test: MIC against gut bacterium Eubacterium sp.; format: cell-based; settings: Eubacterium, Eubacterium sp. strain HM-178, read-out: MIC

Compound: Cc1ncc([N+](=O)[O-])n1CCO [MTZ, metronidazole, reference compound]
- MIC (C. difficile; C. difficile NR-32903): 0.5 µg/mL (≈ 2.92 µM)
- MIC (C. difficile; C. difficile NR-32904): 0.5 µg/mL (≈ 2.92 µM)
- MIC (C. difficile; C. difficile NR-49277): 0.5 µg/mL (≈ 2.92 µM)
- MIC (C. difficile; C. difficile NR-49278): 0.5 µg/mL (≈ 2.92 µM)
- MIC (C. difficile; C. difficile NR-49279): 1 µg/mL (≈ 5.84 µM)
- MIC (C. difficile; C. difficile NR-49280): 1 µg/mL (≈ 5.84 µM)
- MIC (C. difficile; C. difficile NR-49281): 1 µg/mL (≈ 5.84 µM)
- MIC (C. difficile; C. difficile NR-49282): 0.5 µg/mL (≈ 2.92 µM)
- MIC (C. difficile; C. difficile NR-49283): 0.5 µg/mL (≈ 2.92 µM)
- MIC (C. difficile; C. difficile NR-49284): 0.5 µg/mL (≈ 2.92 µM)
- MIC (C. difficile; C. difficile NR-49285): 0.5 µg/mL (≈ 2.92 µM)
- MIC (C. difficile; C. difficile NR-49286): 1 µg/mL (≈ 5.84 µM)
- MIC (C. difficile; C. difficile NR-49287): 0.5 µg/mL (≈ 2.92 µM)
- MIC (C. difficile; C. difficile NR-49288): 0.5 µg/mL (≈ 2.92 µM)
- MIC (C. difficile; C. difficile NR-49289): 0.5 µg/mL (≈ 2.92 µM)
- MIC (C. difficile; C. difficile NR-49290): 1 µg/mL (≈ 5.84 µM)
- MIC (C. difficile; C. difficile NR-49291): 1 µg/mL (≈ 5.84 µM)
- MIC (C. difficile; C. difficile NR-49293): 0.5 µg/mL (≈ 2.92 µM)
- MIC (C. difficile; C. difficile NR-49295): 0.5 µg/mL (≈ 2.92 µM)
- MIC (C. difficile; C. difficile NR-49296): 0.5 µg/mL (≈ 2.92 µM)
- MIC (C. difficile; C. difficile NR-49297): 0.5 µg/mL (≈ 2.92 µM)
- MIC (C. difficile; C. difficile NR-49298): 1 µg/mL (≈ 5.84 µM)
- MIC (C. difficile; C. difficile NR-49299): 0.5 µg/mL (≈ 2.92 µM)
- MIC (C. difficile; C. difficile NR-49300): 0.5 µg/mL (≈ 2.92 µM)
- MIC (C. difficile; C. difficile NR-49301): 0.5 µg/mL (≈ 2.92 µM)
- MIC (C. difficile; C. difficile NR-49303): 0.5 µg/mL (≈ 2.92 µM)
- MIC (C. difficile; C. difficile NR-49304): 0.5 µg/mL (≈ 2.92 µM)
- MIC (C. difficile; C. difficile NR-49306): 0.5 µg/mL (≈ 2.92 µM)
- MIC (C. difficile; C. difficile NR-49307): 0.5 µg/mL (≈ 2.92 µM)
- MIC (C. difficile; C. difficile NR-49308): 0.5 µg/mL (≈ 2.92 µM)
- MIC (C. difficile; C. difficile NR-49309): 0.25 µg/mL (≈ 1.46 µM)
- MIC (C. difficile; C. difficile NR-49311): 0.5 µg/mL (≈ 2.92 µM)
- MIC (C. difficile; C. difficile NR-49312): 0.5 µg/mL (≈ 2.92 µM)
- MIC (C. difficile; C. difficile NR-49313): 0.5 µg/mL (≈ 2.92 µM)
- MIC (C. difficile; C. difficile NR-49314): 0.5 µg/mL (≈ 2.92 µM)
- MIC (C. difficile; C. difficile NR-49315): 0.5 µg/mL (≈ 2.92 µM)
- MIC (C. difficile; C. difficile NR-49316): 0.5 µg/mL (≈ 2.92 µM)
- MIC (C. difficile; C. difficile NR-49317): 0.5 µg/mL (≈ 2.92 µM)
- MIC (C. difficile; C. difficile NR-49319): 0.5 µg/mL (≈ 2.92 µM)
- MIC (C. difficile; C. difficile NR-49320): 0.5 µg/mL (≈ 2.92 µM)
- MIC (C. difficile; C. difficile NR-49321): 0.5 µg/mL (≈ 2.92 µM)
- MIC (C. difficile; C. difficile NR-49323): 0.25 µg/mL (≈ 1.46 µM)
- MIC (C. difficile; C. difficile NR-49324): 0.25 µg/mL (≈ 1.46 µM)
- MIC (C. difficile; C. difficile NR-49325): 0.5 µg/mL (≈ 2.92 µM)
- MIC (C. difficile; C. difficile NR-49326): 0.5 µg/mL (≈ 2.92 µM)
- MIC (C. difficile; C. difficile NR-49327): 0.5 µg/mL (≈ 2.92 µM)
- MIC (C. difficile; C. difficile NR-49328): 0.25 µg/mL (≈ 1.46 µM)
- MIC (C. difficile; C. difficile NR-49329): 0.25 µg/mL (≈ 1.46 µM)
- MIC50 (C. difficile; 101 C. difficile strains): 0.5 µg/mL (≈ 2.92 µM)
- MIC90 (C. difficile; 101 C. difficile strains, read-out: MIC90 (101 strains)): 1 µg/mL (≈ 5.84 µM)
- MIC (MRSA (NRS70, NRS119); MRSA NRS70, Table 1): > 128 µg/mL
- MIC (MRSA (NRS70, NRS119); MRSA NRS70, Table 7): > 128 µg/mL
- MIC (MRSA (NRS70, NRS119); MRSA NRS119, Table 1): > 128 µg/mL
- MIC (S. aureus ATCC29213): > 128 µg/mL
- MIC (E. faecium NCTC7171): > 128 µg/mL
- MIC (Bacteroides fragilis; Table 1): 0.5 µg/mL (≈ 2.92 µM)
- MIC (Bacteroides fragilis; Table 7): 1 µg/mL (≈ 5.84 µM)
- MIC (Bifidobacterium longum; Table 1): 0.5 µg/mL (≈ 2.92 µM)
- MIC (Bifidobacterium longum; Table 7): 1 µg/mL (≈ 5.84 µM)
- MIC (Corynebacterium spp.; Table 1): > 32 µg/mL
- MIC (Corynebacterium spp.; Table 7): > 32 µg/mL
- MIC (Fusobacterium nucleatum; Table 1): 2 µg/mL (≈ 11.7 µM)
- MIC (Fusobacterium nucleatum; Table 7): 2 µg/mL (≈ 11.7 µM)
- MIC (Lactobacillus reuteri; Lactobacillus reuteri strain HM-102, Table 7): >32 mg/L
- MIC (Lactobacillus reuteri; Limosilactobacillus reuteri, Lactobacillus reuter strain HM-102, Table 1, read-out: MIC): > 32 mg/L
- MIC (Lactobacillus gasseri; Lactobacillus gasseri strain HM-644, Table 7): >32 mg/L
- MIC (Lactobacillus gasseri; Lactobacillus gasseri, Lactobacillus gasser strain HM-644, Table 1, read-out: MIC): > 32 mg/L
- MIC (Veillonella sp. HM-49; SP.HM49, Veillonella sp. HM-49, Table 1, read-out: MIC): 2 µg/mL (≈ 11.7 µM)
- MIC (Veillonella sp. HM-49; Veillonella sp. strain HM-49, Table 7): 2 µg/mL (≈ 11.7 µM)
- MIC (Eubacterium sp.; Table 1): 1 µg/mL (≈ 5.84 µM)
- MIC (Eubacterium sp.; Table 7): 1 µg/mL (≈ 5.84 µM)
